Assay: Light-induced degradation of a carbidopa-containing fluid formulation
Format: physicochemical
Conditions: fluid formulation having carbidopa; visible light with wavelengths in the range of about 400 nm to about 550 nm
Excerpt: In some embodiments, the reservoir, and/or other portions of a dosing container, can be adapted to hinder exposure of a contained fluid from portions of a light spectrum, which can be capable of degrading or rendering one or more components of a fluid ineffective. […] Accordingly, if a container is adapted to hinder a carbidopa-containing fluid from being exposed to at least wavelengths in about the 400 nm to about 550 nm range, preservation of the carbidopa can be enhanced. As well, other embodiments can utilize other techniques, in combination or alone, which effectively reduce degradation of a carbidopa-containing fluid in the presence of visible light, such as adding a dye to the carbidopa-containing fluid (e.g., FD&C Yellow 6) to absorb the undesired light components. Other techniques, including ones familiar to those skilled in the art, can also be used.

degradation on exposure to light: found to degrade
Compound: C[C@@](Cc1ccc(O)c(O)c1)(NN)C(=O)O [carbidopa]

Source: patent US8563013B2, “Systems and methods for delivering a fluid drug” (Janssen Biotech, Inc., priority 2007, dated 2013)
